The values that follow come from PubChem BioAssay (NCI).

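1) Cells in 96-well plates. 2) Compound, 48 h, 5 concentrations. 3) Linear interpolation between surrounding doses. 4) Unreached endpoint = highest concentration. TGI marks complete inhibition of growth.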 Where a SMILES comes first, the peptide text is derived from it. The star is where a group is joined. Boc = CC(C)(C)OC(=O)*

Test systems include RXF 393 renal; HCC-2998 colon; EKVX NSCLC; MDA-MB-435; LOX IMVI melanoma; M14 melanoma; OVCAR-5 ovarian; MALME-3M melanoma; T-47D breast; MCF7 breast; HOP-62 NSCLC; SNB-19 CNS; 786-0 renal; TK-10 renal; MDA-MB-231 breast; SW-620 colon; MDA-N; CCRF-CEM leukemia; HL-60(TB) leukemia; K-562 leukemia.
What all share (experiment): NCI tumour cell line growth inhibition, 48 h

Turning to `O=C(NC/C(Cl)=C/Cl)Nc1cccc2c1CCCC2`, the TGI with RXF 393 renal, with HCC-2998 colon, with EKVX NSCLC, with MDA-MB-435, in the test on LOX IMVI melanoma and in the test with M14 melanoma was greater than 100 µM in each case. Further, the TGI with OVCAR-5 ovarian, in the test with MALME-3M melanoma, in the test on T-47D breast, in the test on MCF7 breast, with HOP-62 NSCLC and in the test with SNB-19 CNS was greater than 100 µM each time. Also, the TGI in the test on 786-0 renal, with TK-10 renal, with MDA-MB-231 breast, with SW-620 colon and with MDA-N was greater than 100 µM each time.

As to `CC(=O)NNc1nc(C)c(C(/C=C/c2ccc(NC(C)=O)cc2)=N/NS(=O)(=O)c2ccc(C)cc2)s1`, the TGI in the test on RXF 393 renal, in the test with HCC-2998 colon, with EKVX NSCLC, in the test on MDA-MB-435, in the test on LOX IMVI melanoma and in the test on M14 melanoma was greater than 100 µM each time. For the same compound, the TGI with OVCAR-5 ovarian, with MALME-3M melanoma, with T-47D breast, with MCF7 breast, in the test on HOP-62 NSCLC and with SNB-19 CNS was greater than 100 µM each time. Also, the TGI in the test with CCRF-CEM leukemia, in the test on 786-0 renal, in the test with TK-10 renal, in the test on MDA-MB-231 breast, with HL-60(TB) leukemia and with SW-620 colon was greater than 100 µM each time. In the test on MDA-N, this compound registered a TGI greater than 100 µM.

For the compound `CCOC(=O)C(CC(C)C)NC(=O)C(Cc1ccccc1)NC(=O)CNC(=O)OC(C)(C)C` (stereo not drawn) (Boc-Gly-Phe-Leu-OEt; configuration not given here), the TGI in the test on RXF 393 renal worked out at 49 µM; in the test with HCC-2998 colon, 37.2 µM; in the test with EKVX NSCLC, 54.1 µM; in the test with MDA-MB-435 it was 34.4 µM; with LOX IMVI melanoma, 34.3 µM; with M14 melanoma, 40.2 µM. Besides, the TGI is 39.4 µM with MALME-3M melanoma; 61 µM with T-47D breast; 17.3 µM in the test on MCF7 breast; 64 µM with HOP-62 NSCLC; greater than 100 µM in the test on SNB-19 CNS; 41.3 µM in the test with CCRF-CEM leukemia. Moreover, the TGI in the test on 786-0 renal came to 36.9 µM; in the test on TK-10 renal, 97.8 µM; with K-562 leukemia, 49 µM; in the test with HL-60(TB) leukemia it was 9.88 µM; in the test with SW-620 colon, 39.9 µM; in the test on MDA-N, 28.4 µM.

As for `Nc1cnc2c(c1)c(=O)nc1n2CCS1`, the TGI in the test on RXF 393 renal, in the test with HCC-2998 colon, in the test with EKVX NSCLC, in the test with MDA-MB-435, with LOX IMVI melanoma and with OVCAR-5 ovarian was greater than 100 µM each time. Further, the TGI with MALME-3M melanoma, with MCF7 breast, in the test on HOP-62 NSCLC, in the test on SNB-19 CNS, with CCRF-CEM leukemia and with 786-0 renal was greater than 100 µM each time. The TGI in the test on TK-10 renal, in the test with K-562 leukemia, in the test with MDA-MB-231 breast, in the test with HL-60(TB) leukemia, with SW-620 colon and in the test on MDA-N was greater than 100 µM in each case.

Consider `COc1ccccc1OC(=O)/C=C/c1ccccc1`, for which the TGI with RXF 393 renal, in the test on HCC-2998 colon, in the test on EKVX NSCLC, in the test with MDA-MB-435, with LOX IMVI melanoma and with M14 melanoma was greater than 100 µM throughout. The TGI in the test on OVCAR-5 ovarian, with MALME-3M melanoma, in the test on T-47D breast, with MCF7 breast, in the test on HOP-62 NSCLC and with SNB-19 CNS was greater than 100 µM each time. The TGI with 786-0 renal, in the test with TK-10 renal, in the test with MDA-MB-231 breast, in the test with HL-60(TB) leukemia, in the test with SW-620 colon and with MDA-N was greater than 100 µM each time.

Consider `CC1(C)O[C@@H](CP(c2ccccc2)c2ccccc2)[C@H](CP(c2ccccc2)c2ccccc2)O1`, for which the TGI in the test on RXF 393 renal stood at 26.9 µM; in the test with EKVX NSCLC it was 29.4 µM; in the test on MDA-MB-435 it was 52.4 µM; in the test on LOX IMVI melanoma, 17.4 µM; with M14 melanoma it was 22.7 µM; with OVCAR-5 ovarian it was 54.7 µM. Also, the TGI in the test on MALME-3M melanoma is 20.9 µM; in the test with T-47D breast, 29.8 µM; in the test on HOP-62 NSCLC it was 44.6 µM; in the test with SNB-19 CNS, 72.2 µM; in the test with CCRF-CEM leukemia, greater than 100 µM; in the test on 786-0 renal, 22.8 µM. Besides, the TGI in the test on TK-10 renal amounted to 87 µM; in the test with MDA-MB-231 breast, 31.9 µM; in the test on SW-620 colon, 38.3 µM; with MDA-N, 11.5 µM.

For the compound `O=c1cc(-c2ccccc2Cl)[nH]c2cc3c(cc12)OCO3`, the TGI is 16.4 µM with RXF 393 renal; 0.496 µM in the test with HCC-2998 colon; 0.0313 µM in the test with MDA-MB-435; 11.9 µM in the test with LOX IMVI melanoma; 24.3 µM in the test with M14 melanoma; greater than 100 µM in the test on OVCAR-5 ovarian. For the same compound, the TGI in the test on MALME-3M melanoma is greater than 100 µM; in the test on T-47D breast, greater than 100 µM; in the test with MCF7 breast, greater than 100 µM; in the test on HOP-62 NSCLC, 11.3 µM; with SNB-19 CNS, greater than 100 µM; in the test on CCRF-CEM leukemia, 0.381 µM. Besides, the TGI is 29.8 µM in the test with 786-0 renal; greater than 44.7 µM with TK-10 renal; 0.982 µM in the test on MDA-MB-231 breast; 0.0511 µM in the test with HL-60(TB) leukemia; greater than 100 µM in the test on SW-620 colon; 0.0383 µM in the test on MDA-N.
